The text below walks through data of patent US5032577A, “Peptidylaminodiols” (Abbott Laboratories, priority 1987, dated 1991).

Structures are written as SMILES.

The first assay concerns the target T1, human renal renin (Homo sapiens, UniProt P00797).
T1 construct: human renal renin, free from acid proteolytic activity; from tissue
T1 sequence (P00797 67-406): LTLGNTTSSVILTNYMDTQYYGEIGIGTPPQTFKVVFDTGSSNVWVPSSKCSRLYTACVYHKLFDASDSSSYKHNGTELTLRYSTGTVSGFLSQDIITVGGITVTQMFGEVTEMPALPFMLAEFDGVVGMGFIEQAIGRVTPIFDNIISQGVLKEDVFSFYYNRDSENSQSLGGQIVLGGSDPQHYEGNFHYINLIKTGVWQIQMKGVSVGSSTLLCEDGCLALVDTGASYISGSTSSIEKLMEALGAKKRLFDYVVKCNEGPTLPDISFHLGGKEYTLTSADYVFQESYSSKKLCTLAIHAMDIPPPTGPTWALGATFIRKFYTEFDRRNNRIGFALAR
Put plainly: Inhibition of human renal renin in vitro; angiotensin I formed measured by radioimmunoassay. The format is biochemical.
Conditions: not given
For the compound `CC(C)C[C@H](O)[C@H](O)[C@H](CC1CCCCC1)NC(=O)[C@H](Cc1c[nH]cn1)NC(=O)C(CC(=O)N1CCOCC1)Oc1ccccc1` (single isomer, unassigned) [Example 141], the IC50 worked out at 5.5 nM.
On the same count and under the same terms, the figure for `CC(C)C[C@H](O)[C@H](O)[C@H](CC1CCCCC1)NC(=O)[C@H](Cc1c[nH]cn1)NC(=O)C(CC(=O)N1CCOCC1)Cc1ccccc1` (single isomer, unassigned) [Example 143] is 0.3 nM; for `CC(C)C[C@@H](O)[C@H](O)[C@H](CC1CCCCC1)NC(=O)[C@H](Cc1c[nH]cn1)NC(=O)[C@H](Cc1ccccc1)NC(=O)OC(C)(C)C` [Example 17, Boc-Phe-His Amide of 2(S)-Amino-l-cyclohexyl-3(R),4(R)-dihydroxy-6-methylheptane] it is 35 nM.
In the case of `CC(C)C[C@H](O)[C@H](O)[C@H](CC1CCCCC1)NC(=O)[C@H](Cc1c[nH]cn1)NC(=O)[C@H](CC1CCCCC1)NC(=O)CC(C)(C)C` [Example 21, TBA-CHA-His Amide of 2(S)-Amino-l-cyclohexyl-3(R),4(S)-dihydroxy-6-methylheptane], the IC50 amounted to 2 nM.
`CC(=O)N(C)[C@@H](Cc1ccccc1)C(=O)N[C@@H](Cc1c[nH]cn1)C(=O)N[C@@H](CC1CCCCC1)[C@@H](O)[C@@H](O)CC(C)C` [Example 23, Acetyl-N-methylPhe-His Amide of 2(S)-Amino-1-cyclohexyl-3(R),4(S)-dihydroxy-6-methylheptane] came in with an IC50 of 10 nM.
On the same count and under the same terms, the figure for `CC(=O)O[C@@H](Cc1ccccc1)C(=O)N[C@@H](Cc1c[nH]cn1)C(=O)N[C@@H](CC1CCCCC1)[C@@H](O)[C@@H](O)CC(C)C` [Example 24, Ac-Pl-His Amide of 2(S)-Amino-l-cyclohexyl-3(R),4(S)-dihydroxy-6-methylheptane] is 2 nM; for `CC(C)C[C@H](O)[C@H](O)[C@H](CC1CCCCC1)NC(=O)[C@H](Cc1c[nH]cn1)NC(=O)C(Cc1ccccc1)Cc1ccccc1` [Example 27, Dba-His Amide of 2(S)-Amino-l-cyclohexyl-3(R),4(S)-dihydroxy-6-methylhectane] it is 7 nM.
In turn, `CC(C)C[C@H](O)[C@H](O)[C@H](CC1CCCCC1)NC(=O)[C@H](Cc1c[nH]cn1)NC(=O)CCc1ccccc1` [Example 28, Pp-His Amide of 2(S)-Amino-l-cyclohexyl-3(R),4(S)-dihydroxy-6-methylheptane] returned an IC50 of 80 nM.
`CCOC(=O)N[C@@H](Cc1ccccc1)C(=O)N[C@@H](CC(C)C)C(=O)N[C@@H](CC1CCCCC1)[C@@H](O)[C@@H](O)CC(C)C` [Example 36, Ethoxycarbonyl-phe-Leu Amide of 2(S)-Amino-cyclohexyl-3(R),4(S)-dihydroxy-6-methylheptane] had an IC50 of 0.4 nM.
The same measure, in the same setting: with `CC(C)CC[C@H](O)[C@H](O)[C@H](CC1CCCCC1)NC(=O)[C@H](Cc1c[nH]cn1)NC(=O)[C@H](Cc1ccccc1)NC(=O)CC(C)(C)C` [Example 43, TBA-Phe-His Amide of 2(S)-Amino-1-cyclohexyl-3(R),4(S)-dihydroxy-7-methyloctane] the figure was 5 nM; with `CCOC(=O)N[C@@H](Cc1ccccc1)C(=O)N[C@@H](CC(C)C)C(=O)N[C@@H](CC1CCCCC1)[C@@H](O)[C@@H](O)CC` [Example 47, Ethoxycarbonyl-Phe-Leu Amide of 2(S)-Amino-1-cyclohexyl-3(R),4(S)-dihydroxyhexane], 1 nM.
Compound `COc1ccc(C[C@H](N)C(=O)N[C@@H](CC(C)C)C(=O)N[C@@H](CC2CCCCC2)[C@@H](O)[C@@H](O)CC(C)C)cc1` [Example 55, H-(4-OCH3)Phe-Leu Amide of 2(S)-Amino-1-cyclohexyl-3(R),4(S)-dihydroxy-6-methylheptane] returned an IC50 of 2 nM.
As to `COc1ccc(C[C@@H](C(=O)N[C@@H](CC(C)C)C(=O)N[C@@H](CC2CCCCC2)[C@@H](O)[C@@H](O)CC(C)C)N(C)C)cc1` [Example 56, (N,N-Dimethyl,4-methoxy)-Phe-Leu Amide of 2(S)-Amino-1-cyclohexyl-3(R),4(S)-dihydroxy-6-methylheptane], half-maximal inhibition (IC50) required 5.5 nM.

The assay is the same for the next values; noted with them: human renal renin free from acid proteolytic activity, renin substrate human angiotensinogen, 37° C., pH 6.0.
For `CC(C)(C)OC(=O)N[C@@H](Cc1ccccc1)C(=O)N[C@@H](Cc1c[nH]cn1)C(=O)N[C@@H](CC1CCCCC1)[C@@H](O)CO` [Example 6, Boc-Phe-His Amides of 3(S)-Amino-4-cyclohexyl-1,2(R)-dihydroxybutane], the IC50 is 50 nM.
The same measure, in the same setting: the figure for `CC(C)C[C@H](O)[C@H](O)[C@H](CC1CCCCC1)NC(=O)[C@H](Cc1c[nH]cn1)NC(=O)[C@H](Cc1ccccc1)NC(=O)OC(C)(C)C` [Example 15, Boc-Phe-His Amide of 2(S)-Amino-l-cyclohexyl-3(R),4(S)-dihydroxy-6-methylheptane] is 1.5 nM; for `CC(C)C[C@H](O)[C@@H](O)[C@H](CC1CCCCC1)NC(=O)[C@H](Cc1c[nH]cn1)NC(=O)[C@H](Cc1ccccc1)NC(=O)OC(C)(C)C` [Example 16, Boc-Phe-His Amide of 2(S)-Amino-l-cyclohexyl-3(S),4(S)-dihydroxy-6-methylheptane] it is 70 nM; for `CC(C)C[C@@H](O)[C@@H](O)[C@H](CC1CCCCC1)NC(=O)[C@H](Cc1c[nH]cn1)NC(=O)[C@H](Cc1ccccc1)NC(=O)OC(C)(C)C` [Example 18, Boc-Phe-His Amide of 2(S)-Amino-l-cyclohexyl-3(S),4(R)-dihydroxy-6-methylheptane] it is 95 nM.
Regarding `CCOC(=O)N[C@@H](Cc1ccc(OC)cc1)C(=O)N[C@@H](Cc1c[nH]cn1)C(=O)N[C@@H](CC1CCCCC1)[C@@H](O)[C@@H](O)CC(C)C` [Example 22, Ethoxycarbonyl-(OCH3)Tyr-His Amide of 2(S)-Amino-1-cyclohexyl-3(R),4(S)-dihydroxy-6-methylheptane], the IC50 is 1.5 nM.
In turn, `CC(C)C[C@H](NC(=O)OC(C)(C)C)C(=O)N[C@@H](Cc1c[nH]cn1)C(=O)N[C@@H](CC1CCCCC1)[C@@H](O)[C@@H](O)CC(C)C` [Example 31, Boc-Leu-His Amide of 2(S)-Amino-l-cyclohexyl-3(R),4(S)-dihydroxy-6-methylheptane] came in with an IC50 of 1 nM.
The compound `CC(C)C[C@H](O)[C@H](O)[C@H](CC1CCCCC1)NC(=O)[C@H](C)NC(=O)[C@H](Cc1ccccc1)NC(=O)OC(C)(C)C` [Example 33, Boc-phe-Ala Amide of 2(S)-Amino-l-cyclohexyl-3(R),4(S)-dihydroxy-6-methylheptane] yielded an IC50 of 5 nM.
The compound `CC(C)C[C@H](O)[C@H](O)[C@H](CC1CCCCC1)NC(=O)[C@H](Cc1ccccc1)NC(=O)[C@H](Cc1ccccc1)NC(=O)OC(C)(C)C` [Example 34, Boc-Phe-Phe Amide of 2(S)-Amino-l-cyclohexyl-3(R),4(S)-dihYdroxy-6-methYlheptane] showed an IC50 of 1.5 nM.
Still for that read-out and setting: the figure for `CC(C)[C@H](O)[C@H](O)[C@H](CC1CCCCC1)NC(=O)[C@H](Cc1c[nH]cn1)NC(=O)[C@H](Cc1ccccc1)NC(=O)OC(C)(C)C` [Example 46, Boc-Phe-His Amide of 2(S)-Amino-l-cyclohexyl-3(R),4(S)-dihydroxy-5-methylhexane] is 1.5 nM; for `C[C@H](O)[C@H](O)[C@H](CC1CCCCC1)NC(=O)[C@H](Cc1c[nH]cn1)NC(=O)[C@H](Cc1ccccc1)NC(=O)OC(C)(C)C` [Example 49, Boc-Phe-His Amide of 2(S)-Amino-l-cyclohexyl-3(R),4(S)-dihydroxypentane] it is 2 nM.

As usually defined, the IC50 is the concentration needed to halve the response being measured. Read a high IC50 as a need for much substance.
